Assay results: the kinase profiling compilation of Christmann-Franck et al. (2016)
One block for each compound: values may come before it.

Legend:
DAPK3 (human) = DAPK3 (human) (UniProt O43293); assay: Caliper, Mobility shift assay off-chip
BLK (human) = BLK (human) (UniProt P51451); assay: Caliper, Mobility shift assay off-chip
PIM3 (human) = PIM3 (human) (UniProt Q86V86); assay: Caliper, Mobility shift assay off-chip
EPHB1 (human) = EPHB1 (human) (UniProt P54762); assay: Caliper, Mobility shift assay off-chip
DAPK1 (human) = DAPK1 (human) (UniProt P53355); assay: Caliper, Mobility shift assay off-chip
MET (human) [1] = target: MET (human) (UniProt P08581); assay: TR FRET
[2] = tested on: MET (human), P08581 [M1250T]; assay: Caliper, Mobility shift assay off-chip
MET (human) [3] = target: MET (human) (UniProt P08581); assay: Caliper, Mobility shift assay off-chip
PASK (human) = PASK (human) (UniProt Q96RG2); assay: SelectScreen, TR FRET
SRPK1 (human) = SRPK1 (human) (UniProt Q96SB4); assay: SelectScreen, TR FRET
SRC (human) = SRC (human) (UniProt P12931); assay: SelectScreen, TR FRET
MINK1 (human) = MINK1 (human) (UniProt Q8N4C8); assay: SelectScreen, TR FRET
MAPKAPK2 (human) = MAPKAPK2 (human) (UniProt P49137); assay: SelectScreen, TR FRET
CDK5 CDK5R1 p25 (human) = CDK5 CDK5R1 p25 (human) (UniProt Q15078+Q00535); assay: SelectScreen, TR FRET
MAPK1 (human) = MAPK1 (human) (UniProt P28482); assay: SelectScreen, TR FRET
ABL1 (human) = ABL1 (human) (UniProt P00519); assay: SelectScreen, TR FRET
EPHB2 (human) = EPHB2 (human) (UniProt P29323); assay: SelectScreen, TR FRET
CLK2 (human) = CLK2 (human) (UniProt P49760); assay: SelectScreen, TR FRET
AKT2 (human) = AKT2 (human) (UniProt P31751); assay: SelectScreen, TR FRET
MAPKAPK5 (human) = MAPKAPK5 (human) (UniProt Q8IW41); assay: SelectScreen, TR FRET
NEK6 (human) = NEK6 (human) (UniProt Q9HC98); assay: SelectScreen, TR FRET
ROCK2 (human) = ROCK2 (human) (UniProt O75116); assay: SelectScreen, TR FRET
GSK3B (human) = GSK3B (human) (UniProt P49841); assay: SelectScreen, TR FRET
SPHK1 (human) = SPHK1 (human) (UniProt Q9NYA1); assay: SelectScreen, TR FRET
ADRBK1 (human) = ADRBK1 (human) (UniProt P25098); assay: SelectScreen, TR FRET
TBK1 (human) = TBK1 (human) (UniProt Q9UHD2); assay: SelectScreen, TR FRET
MARK2 (human) = MARK2 (human) (UniProt Q7KZI7); assay: SelectScreen, TR FRET
EPHA8 (human) = EPHA8 (human) (UniProt P29322); assay: SelectScreen, TR FRET
ZAP70 (human) = ZAP70 (human) (UniProt P43403); assay: SelectScreen, TR FRET
FLT3 (human) = FLT3 (human) (UniProt P36888); assay: SelectScreen, TR FRET

inhibition (DAPK3 (human); compound 0.1 µM): 5%
inhibition (DAPK3 (human); compound 1.0 µM): 10.3%
inhibition (BLK (human); compound 0.1 µM): -30.4%
inhibition (BLK (human); compound 1.0 µM): 29.2%
inhibition (PIM3 (human); compound 0.1 µM): 4%
inhibition (PIM3 (human); compound 1.0 µM): 0.2%
inhibition (EPHB1 (human); compound 0.1 µM): 1.8%
inhibition (EPHB1 (human); compound 1.0 µM): 9.7%
inhibition (DAPK1 (human); compound 0.1 µM): 3%
inhibition (DAPK1 (human); compound 1.0 µM): 9.2%
SMILES: CN(c1ccc2ccc3ncc(-c4cnn(C)c4)cc3c(=O)c2c1)S(=O)(=O)NCc1ccccn1

IC50 (MET (human) [1]): 85 nM
inhibition ([2]; compound 0.1 µM): 87%
inhibition ([2]; compound 1.0 µM): 98.4%
inhibition (DAPK3 (human); compound 0.1 µM): -1.7%
inhibition (DAPK3 (human); compound 1.0 µM): -4.5%
inhibition (MET (human) [3]; compound 0.1 µM): 74.1%
inhibition (MET (human) [3]; compound 1.0 µM): 95.7%
inhibition (BLK (human); compound 0.1 µM): -0.5%
inhibition (BLK (human); compound 1.0 µM): 16.6%
inhibition (PIM3 (human); compound 0.1 µM): -3.4%
inhibition (PIM3 (human); compound 1.0 µM): 0.3%
inhibition (EPHB1 (human); compound 0.1 µM): 1%
inhibition (EPHB1 (human); compound 1.0 µM): 3.3%
inhibition (DAPK1 (human); compound 0.1 µM): 2.4%
inhibition (DAPK1 (human); compound 1.0 µM): 0.1%
SMILES: O=C(CCc1ccc2ccc3ncc(C4CCNCC4)cc3c(=O)c2c1)NCc1ccccn1

inhibition (DAPK3 (human); compound 0.01 µM): -1.6%
inhibition (DAPK3 (human); compound 0.1 µM): 0.3%
inhibition (BLK (human); compound 0.01 µM): 0.8%
inhibition (BLK (human); compound 0.1 µM): 15.8%
inhibition (PIM3 (human); compound 0.01 µM): 7%
inhibition (PIM3 (human); compound 0.1 µM): 4.6%
inhibition (EPHB1 (human); compound 0.01 µM): 5.1%
inhibition (EPHB1 (human); compound 0.1 µM): -8%
inhibition (DAPK1 (human); compound 0.01 µM): 13.1%
inhibition (DAPK1 (human); compound 0.1 µM): 0.1%
SMILES: Cn1cc(-c2cnc3ccc4ccc(CS(=O)(=O)NC5CCCCC5)cc4c(=O)c3c2)cn1

inhibition (PASK (human); compound 0.1 µM): 7.5%
inhibition (PASK (human); compound 1.0 µM): 5.9%
inhibition (PASK (human); compound 10.0 µM): 11.1%
inhibition (SRPK1 (human); compound 0.1 µM): 11.1%
inhibition (SRPK1 (human); compound 1.0 µM): 11.5%
inhibition (SRPK1 (human); compound 10.0 µM): 12.5%
inhibition (SRC (human); compound 0.1 µM): 3.7%
inhibition (SRC (human); compound 1.0 µM): 7.4%
inhibition (SRC (human); compound 10.0 µM): 15%
inhibition (MINK1 (human); compound 0.1 µM): 19.9%
inhibition (MINK1 (human); compound 1.0 µM): 29.2%
inhibition (MINK1 (human); compound 10.0 µM): 71.1%
inhibition (MAPKAPK2 (human); compound 0.1 µM): 9.5%
inhibition (MAPKAPK2 (human); compound 1.0 µM): 7.8%
inhibition (MAPKAPK2 (human); compound 10.0 µM): 19.8%
inhibition (CDK5 CDK5R1 p25 (human); compound 0.1 µM): 6.6%
inhibition (CDK5 CDK5R1 p25 (human); compound 1.0 µM): 6.7%
inhibition (CDK5 CDK5R1 p25 (human); compound 10.0 µM): 14.5%
inhibition (MAPK1 (human); compound 0.1 µM): 12.7%
inhibition (MAPK1 (human); compound 1.0 µM): 8.8%
inhibition (MAPK1 (human); compound 10.0 µM): -8.1%
inhibition (ABL1 (human); compound 0.1 µM): 19.9%
inhibition (ABL1 (human); compound 1.0 µM): 14.1%
inhibition (ABL1 (human); compound 10.0 µM): 81.7%
inhibition (EPHB2 (human); compound 0.1 µM): 8.6%
inhibition (EPHB2 (human); compound 1.0 µM): 8%
inhibition (EPHB2 (human); compound 10.0 µM): 3.5%
inhibition (CLK2 (human); compound 0.1 µM): 9.2%
inhibition (CLK2 (human); compound 1.0 µM): 22.8%
inhibition (CLK2 (human); compound 10.0 µM): 69.8%
inhibition (AKT2 (human); compound 0.1 µM): 9.8%
inhibition (AKT2 (human); compound 1.0 µM): 11.3%
inhibition (AKT2 (human); compound 10.0 µM): 15.6%
inhibition (MAPKAPK5 (human); compound 0.1 µM): 5.2%
inhibition (MAPKAPK5 (human); compound 1.0 µM): 6.7%
inhibition (MAPKAPK5 (human); compound 10.0 µM): 7.9%
inhibition (NEK6 (human); compound 0.1 µM): 5.2%
inhibition (NEK6 (human); compound 1.0 µM): -7.4%
inhibition (NEK6 (human); compound 10.0 µM): 9.6%
inhibition (ROCK2 (human); compound 0.1 µM): -1.9%
inhibition (ROCK2 (human); compound 1.0 µM): -0.2%
inhibition (ROCK2 (human); compound 10.0 µM): -5.8%
inhibition (GSK3B (human); compound 0.1 µM): 7.3%
inhibition (GSK3B (human); compound 1.0 µM): 8.1%
inhibition (GSK3B (human); compound 10.0 µM): 64%
inhibition (SPHK1 (human); compound 0.1 µM): -3.4%
inhibition (SPHK1 (human); compound 1.0 µM): -4.1%
inhibition (SPHK1 (human); compound 10.0 µM): -2.1%
inhibition (ADRBK1 (human); compound 0.1 µM): 9.4%
inhibition (ADRBK1 (human); compound 1.0 µM): 8.9%
inhibition (ADRBK1 (human); compound 10.0 µM): 10.4%
inhibition (TBK1 (human); compound 0.1 µM): -1.6%
inhibition (TBK1 (human); compound 1.0 µM): 7.8%
inhibition (TBK1 (human); compound 10.0 µM): 33.2%
inhibition (MARK2 (human); compound 0.1 µM): 12.1%
inhibition (MARK2 (human); compound 1.0 µM): 14.2%
inhibition (MARK2 (human); compound 10.0 µM): 19.7%
inhibition (EPHA8 (human); compound 0.1 µM): 5.4%
inhibition (EPHA8 (human); compound 1.0 µM): 6.4%
inhibition (EPHA8 (human); compound 10.0 µM): 24.3%
inhibition (ZAP70 (human); compound 0.1 µM): 18.4%
inhibition (ZAP70 (human); compound 1.0 µM): 17.4%
inhibition (ZAP70 (human); compound 10.0 µM): 15.2%
inhibition (FLT3 (human); compound 0.1 µM): 24.6%
inhibition (FLT3 (human); compound 1.0 µM): 59.7%
inhibition (FLT3 (human); compound 10.0 µM): 80%
SMILES: Cn1cc(-c2cnc3ccc4ccc(CC(=O)NCc5ccccn5)cc4c(=O)c3c2)cn1

IC50 (MET (human) [1]): 1 nM
inhibition (MET (human) [3]; compound 0.01 µM): 94.7%
inhibition (MET (human) [3]; compound 0.1 µM): 99.3%
SMILES: O=c1c2cc(CS(=O)(=O)NCc3ccccn3)ccc2ccc2ncc(C3CCNCC3)cc12
